Measured values published in PubChem BioAssay (NCI).
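Briefly, cells in 96-well plates were exposed to five compound concentrations for 48 h, and endpoints were estimated by linear interpolation. At the GI50, growth is halved. TGI: total growth inhibition.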

Tests used:
Test in all cases: growth of human tumour cells (NCI), 48 h
UACC-257 melanoma = system: UACC-257 melanoma
SR leukemia = system: SR leukemia
A498 renal = system: A498 renal
SW-620 colon = system: SW-620 colon
SN12C renal = system: SN12C renal
HL-60(TB) leukemia = system: HL-60(TB) leukemia
ACHN renal = system: ACHN renal
SNB-19 CNS = system: SNB-19 CNS
UACC-62 melanoma = system: UACC-62 melanoma
MDA-MB-231 breast = system: MDA-MB-231 breast
SNB-75 CNS = system: SNB-75 CNS
786-0 renal = system: 786-0 renal
LOX IMVI melanoma = system: LOX IMVI melanoma
NCI-H23 lung = system: NCI-H23 lung
MOLT-4 leukemia = system: MOLT-4 leukemia
RPMI-8226 leukemia = system: RPMI-8226 leukemia
HCC-2998 colon = system: HCC-2998 colon
M14 melanoma = system: M14 melanoma
NCI-H226 lung = system: NCI-H226 lung
MALME-3M melanoma = system: MALME-3M melanoma
T-47D breast = system: T-47D breast
KM12 colon = system: KM12 colon
HOP-62 NSCLC = system: HOP-62 NSCLC
MCF7 breast = system: MCF7 breast
OVCAR-4 ovarian = system: OVCAR-4 ovarian
TK-10 renal = system: TK-10 renal
RXF 393 renal = system: RXF 393 renal
IGROV1 ovarian = system: IGROV1 ovarian
HCT-116 colon = system: HCT-116 colon
HCT-15 colon = system: HCT-15 colon
COLO 205 colon = system: COLO 205 colon
A549 NSCLC = system: A549 NSCLC
CAKI-1 renal = system: CAKI-1 renal
NCI-H460 lung = system: NCI-H460 lung
EKVX NSCLC = system: EKVX NSCLC
SK-OV-3 ovarian = system: SK-OV-3 ovarian
HOP-92 NSCLC = system: HOP-92 NSCLC
HS 578T breast = system: HS 578T breast
SK-MEL-2 melanoma = system: SK-MEL-2 melanoma
SK-MEL-5 melanoma = system: SK-MEL-5 melanoma
OVCAR-5 ovarian = system: OVCAR-5 ovarian
MDA-MB-435 = system: MDA-MB-435
MDA-MB-468 breast = system: MDA-MB-468 breast
UO-31 renal = system: UO-31 renal
OVCAR-3 ovarian = system: OVCAR-3 ovarian
CCRF-CEM leukemia = system: CCRF-CEM leukemia
SK-MEL-28 melanoma = system: SK-MEL-28 melanoma
U251 CNS = system: U251 CNS
SF-295 CNS = system: SF-295 CNS
SF-268 CNS = system: SF-268 CNS
PC-3 prostate = system: PC-3 prostate
BT-549 breast = system: BT-549 breast
HT29 colon = system: HT29 colon
DU-145 prostate = system: DU-145 prostate
K-562 leukemia = system: K-562 leukemia
NCI-H522 lung = system: NCI-H522 lung
OVCAR-8 ovarian = system: OVCAR-8 ovarian
SF-539 CNS = system: SF-539 CNS

O=C1Nc2ccc(F)cc2/C1=C/c1cccc(OCc2ccccc2)c1
GI50 (UACC-257 melanoma): 16.8 µM | TGI (UACC-257 melanoma): 36.2 µM | GI50 (SR leukemia): 4.83 µM | TGI (SR leukemia): 23.1 µM | GI50 (A498 renal): 29.7 µM | TGI (A498 renal): > 100 µM | GI50 (SW-620 colon): 15.1 µM | TGI (SW-620 colon): 29.4 µM | GI50 (SN12C renal): 13.4 µM | TGI (SN12C renal): 26.8 µM | GI50 (HL-60(TB) leukemia): 11.7 µM | TGI (HL-60(TB) leukemia): 34.1 µM | GI50 (ACHN renal): 13.5 µM | TGI (ACHN renal): 26.5 µM | GI50 (SNB-19 CNS): 14.2 µM | TGI (SNB-19 CNS): 29.2 µM | GI50 (UACC-62 melanoma): 10.4 µM | TGI (UACC-62 melanoma): 22.5 µM | GI50 (MDA-MB-231 breast): 13.8 µM | TGI (MDA-MB-231 breast): 29.2 µM | GI50 (SNB-75 CNS): 14.7 µM | TGI (SNB-75 CNS): 43.3 µM | GI50 (786-0 renal): 14.5 µM | TGI (786-0 renal): 29.5 µM | GI50 (LOX IMVI melanoma): 8.51 µM | TGI (LOX IMVI melanoma): 28.7 µM | GI50 (NCI-H23 lung): 11.7 µM | TGI (NCI-H23 lung): 27.5 µM | GI50 (MOLT-4 leukemia): 6.85 µM | TGI (MOLT-4 leukemia): 30.2 µM | GI50 (RPMI-8226 leukemia): 10.7 µM | TGI (RPMI-8226 leukemia): 30.7 µM | GI50 (HCC-2998 colon): 16.3 µM | TGI (HCC-2998 colon): 31.7 µM | GI50 (M14 melanoma): 14.9 µM | TGI (M14 melanoma): 31.5 µM | GI50 (NCI-H226 lung): 12.5 µM | TGI (NCI-H226 lung): 27.1 µM | GI50 (MALME-3M melanoma): 15.5 µM | TGI (MALME-3M melanoma): 29 µM | GI50 (T-47D breast): 12.1 µM | TGI (T-47D breast): 62 µM | GI50 (KM12 colon): 13.7 µM | TGI (KM12 colon): 32.4 µM | GI50 (HOP-62 NSCLC): 16.2 µM | TGI (HOP-62 NSCLC): 37.1 µM | GI50 (MCF7 breast): 5.44 µM | TGI (MCF7 breast): 21.8 µM | GI50 (OVCAR-4 ovarian): 9.89 µM | TGI (OVCAR-4 ovarian): 30.2 µM | GI50 (TK-10 renal): 19.6 µM | TGI (TK-10 renal): 41.9 µM | GI50 (RXF 393 renal): 13.7 µM | TGI (RXF 393 renal): 29.8 µM | GI50 (IGROV1 ovarian): 13.4 µM | TGI (IGROV1 ovarian): 27.1 µM | GI50 (HCT-116 colon): 10.5 µM | TGI (HCT-116 colon): 25.9 µM | GI50 (HCT-15 colon): 11.9 µM | TGI (HCT-15 colon): 29.3 µM | GI50 (COLO 205 colon): 17.8 µM | TGI (COLO 205 colon): 35.5 µM | GI50 (A549 NSCLC): 18.6 µM | TGI (A549 NSCLC): 75 µM | GI50 (CAKI-1 renal): 8.46 µM | TGI (CAKI-1 renal): 21.7 µM | GI50 (NCI-H460 lung): 14.1 µM | TGI (NCI-H460 lung): 28.7 µM | GI50 (EKVX NSCLC): 12.8 µM | TGI (EKVX NSCLC): 27.8 µM | GI50 (SK-OV-3 ovarian): 16.7 µM | TGI (SK-OV-3 ovarian): 39.4 µM | GI50 (HOP-92 NSCLC): 3.76 µM | TGI (HOP-92 NSCLC): 17.1 µM | GI50 (HS 578T breast): 15.4 µM | TGI (HS 578T breast): 57.9 µM | GI50 (SK-MEL-2 melanoma): 12.9 µM | TGI (SK-MEL-2 melanoma): 27.8 µM | GI50 (SK-MEL-5 melanoma): 15.8 µM | TGI (SK-MEL-5 melanoma): 29.8 µM | GI50 (OVCAR-5 ovarian): 16.5 µM | TGI (OVCAR-5 ovarian): 30.6 µM | GI50 (MDA-MB-435): 15.1 µM | TGI (MDA-MB-435): 29 µM | GI50 (MDA-MB-468 breast): 10.8 µM | TGI (MDA-MB-468 breast): 23.6 µM | GI50 (UO-31 renal): 10 µM | TGI (UO-31 renal): 21.7 µM | GI50 (OVCAR-3 ovarian): 11.8 µM | TGI (OVCAR-3 ovarian): 24.7 µM | GI50 (CCRF-CEM leukemia): 12.4 µM | TGI (CCRF-CEM leukemia): 35.2 µM | GI50 (SK-MEL-28 melanoma): 16 µM | TGI (SK-MEL-28 melanoma): 30.1 µM | GI50 (U251 CNS): 12.6 µM | TGI (U251 CNS): 32.6 µM | GI50 (SF-295 CNS): 15.2 µM | TGI (SF-295 CNS): 34.2 µM | GI50 (SF-268 CNS): 14 µM | TGI (SF-268 CNS): 34.2 µM | GI50 (PC-3 prostate): 13.8 µM | TGI (PC-3 prostate): 30.3 µM | GI50 (BT-549 breast): 10.5 µM | TGI (BT-549 breast): 23.4 µM | GI50 (HT29 colon): 17.8 µM | TGI (HT29 colon): 35.4 µM | GI50 (DU-145 prostate): 14.8 µM | TGI (DU-145 prostate): 31.4 µM | GI50 (K-562 leukemia): 10.5 µM | TGI (K-562 leukemia): 31.8 µM | GI50 (NCI-H522 lung): 12.4 µM | TGI (NCI-H522 lung): 27.3 µM | GI50 (OVCAR-8 ovarian): 20.1 µM | TGI (OVCAR-8 ovarian): 57.8 µM | GI50 (SF-539 CNS): 14.8 µM | TGI (SF-539 CNS): 28.1 µM
